Measurements reported in patent US20240239755A1, “SUBSTITUTED PYRIDAZINONES, SALTS OR N-OXIDES THEREOF AND THEIR USE AS HERBICIDALLY ACTIVE SUBSTANCES” (Bayer Aktiengesellschaft, priority 2021, published 2024).

Experiments:
Assay type in all cases: in vivo
[1] = tested on: Lolium rigidum (LOLRI); assay: Herbicidal pre-emergence action, 1280 g/ha (Table A5); conditions: visual grading after ca. 3 weeks vs untreated controls
Description: (§1) Seeds of mono- and dicotyledonous weed plants were sown in plastic pots (double sowings with one species of mono- and one species of dicotyledonous weed plants per pot), in sandy loam, and covered with soil. The compounds according to the invention, formulated in the form of wettable powders (WP) or as emulsifiable concentrates (EC), were applied to the surface of the covering soil as an aqueous suspension or as an emulsion, with the addition of 0.5% of an additive, at an application rate of 600 litres of water per hectare (converted). Following treatment, the pots were placed in a greenhouse and kept under optimum growth conditions for the test plants. The visual grading of the damage to the test plants was carried out after ca. 3 weeks in comparison to untreated controls (herbicidal effect in percent (%): 100% effect=plants have died, 0% effect=as control plants). Tables A1 to A11 below, show the effects of selected compounds of the general formula (I) according to Table 1 on various harmful plants and an application rate corresponding to 1280 g/ha obtained by the experimental procedure mentioned above.

[2] = tested on: Stellaria media (STEME); assay: Herbicidal pre-emergence action, 1280 g/ha (Table A9); conditions: visual grading after ca. 3 weeks vs untreated controls
Description: as §1

[3] = tested on: Abutilon theophrasti (ABUTH); assay: Herbicidal post-emergence action, 1280 g/ha (Table B1); conditions: visual assessment after ca. 3 weeks vs untreated controls
Description: (§2) Seeds of mono- and dicotyledonous weed plants were sown in plastic pots (double sowings with one species of mono- and one species of dicotyledonous weed plants per pot), in sandy loam, covered with soil and grown under controlled growth conditions. 2 to 3 weeks after sowing, the test plants were sprayed in the single-leaf stage. The compounds according to the invention, formulated in the form of wettable powders (WP) or as emulsifiable concentrates (EC), were sprayed onto the green plant parts as an aqueous suspension or as an emulsion, with the addition of 0.5% of an additive, at an application rate of 600 litres of water per hectare (converted). The test plants were placed in the greenhouse for ca. 3 weeks under optimum growth conditions, and then the effect of the preparations was assessed visually in comparison with untreated controls (herbicidal effect in percent (%): 100% effect=plants have died, 0% effect=as control plants). Tables B1 to B11 below, show the effects of selected compounds of the general formula (I) according to Table 1 on various harmful plants using an application rate corresponding to 1280 g/ha obtained by the experimental procedure mentioned above.

[4] = tested on: Kochia scoparia (KCHSC); assay: Herbicidal post-emergence action, 1280 g/ha (Table B4); conditions: visual assessment after ca. 3 weeks vs untreated controls
Description: as §2

[5] = tested on: Matricaria inodora (MATIN); assay: Herbicidal post-emergence action, 1280 g/ha (Table B6); conditions: visual assessment after ca. 3 weeks vs untreated controls
Description: as §2

[6] = tested on: Stellaria media (STEME); assay: Herbicidal post-emergence action, 1280 g/ha (Table B9); conditions: visual assessment after ca. 3 weeks vs untreated controls
Description: as §2

[7] = tested on: Veronica persica (VERPE); assay: Herbicidal post-emergence action, 1280 g/ha, VERPE; conditions: visual grading vs untreated controls
Description: as §2, with “plants).” for “plants). Tables B1 to B11 below, show the effects of selected compounds of the general formula (I) according to Table 1 on various harmful plants using an application rate corresponding to 1280 g/ha obtained by the experimental procedure mentioned above.”
(§3) Tables B1 to B11 below, show the effects of selected compounds of the general formula (I) according to Table 1 on various harmful plants using an application rate corresponding to 1280 g/ha obtained by the experimental procedure mentioned above.

[8] = tested on: Amaranthus retroflexus (AMARE); assay: Herbicidal post-emergence action, 1280 g/ha, AMARE; conditions: visual grading vs untreated controls
Description: as §2, with “plants).” for “plants). Tables B1 to B11 below, show the effects of selected compounds of the general formula (I) according to Table 1 on various harmful plants using an application rate corresponding to 1280 g/ha obtained by the experimental procedure mentioned above.”
as §3

[9] = tested on: Abutilon theophrasti (ABUTH); assay: Herbicidal post-emergence action, 320 g/ha, ABUTH; conditions: visual grading after ca. 3 weeks
Description: as §2, with “plants).” for “plants). Tables B1 to B11 below, show the effects of selected compounds of the general formula (I) according to Table 1 on various harmful plants using an application rate corresponding to 1280 g/ha obtained by the experimental procedure mentioned above.”
(§4) Tables D1 to D8 below, show the effects of selected compounds of the general formula (I) according to Table 1 on various harmful plants using an application rate corresponding to 320 g/ha obtained by the experimental procedure mentioned above.

[10] = tested on: Kochia scoparia (KCHSC); assay: Herbicidal post-emergence action, 320 g/ha, KCHSC; conditions: visual grading after ca. 3 weeks
Description: as §2, with “plants).” for “plants). Tables B1 to B11 below, show the effects of selected compounds of the general formula (I) according to Table 1 on various harmful plants using an application rate corresponding to 1280 g/ha obtained by the experimental procedure mentioned above.”
as §4

[11] = tested on: Amaranthus retroflexus (AMARE); assay: Herbicidal post-emergence action, 320 g/ha, AMARE; conditions: visual grading after ca. 3 weeks
Description: as §2, with “plants).” for “plants). Tables B1 to B11 below, show the effects of selected compounds of the general formula (I) according to Table 1 on various harmful plants using an application rate corresponding to 1280 g/ha obtained by the experimental procedure mentioned above.”
as §4

[12] = tested on: Lolium rigidum (LOLRI); assay: Herbicidal post-emergence action, 1280 g/ha (Table B5); conditions: visual assessment after ca. 3 weeks vs untreated controls
Description: as §2

[13] = tested on: Abutilon theophrasti (ABUTH); assay: Herbicidal pre-emergence action, 1280 g/ha (Table A1); conditions: visual grading after ca. 3 weeks vs untreated controls
Description: as §1

[14] = tested on: Amaranthus retroflexus (AMARE); assay: Herbicidal pre-emergence action, 1280 g/ha (Table A11); conditions: visual grading after ca. 3 weeks vs untreated controls
Description: as §1

[15] = tested on: Stellaria media (STEME); assay: Herbicidal pre-emergence action, 320 g/ha, STEME; conditions: visual grading after ca. 3 weeks
Description: as §1, with “plants).” for “plants). Tables A1 to A11 below, show the effects of selected compounds of the general formula (I) according to Table 1 on various harmful plants and an application rate corresponding to 1280 g/ha obtained by the experimental procedure mentioned above.”
Tables C1 to C6 below, show the effects of selected compounds of the general formula (I) according to Table 1 on various harmful plants using an application rate corresponding to 320 g/ha obtained by the experimental procedure mentioned above.

[16] = tested on: Stellaria media (STEME); assay: Herbicidal post-emergence action, 320 g/ha, STEME; conditions: visual grading after ca. 3 weeks
Description: as §2, with “plants).” for “plants). Tables B1 to B11 below, show the effects of selected compounds of the general formula (I) according to Table 1 on various harmful plants using an application rate corresponding to 1280 g/ha obtained by the experimental procedure mentioned above.”
as §4

[17] = tested on: Kochia scoparia (KCHSC); assay: Herbicidal pre-emergence action, 1280 g/ha (Table A4); conditions: visual grading after ca. 3 weeks vs untreated controls
Description: as §1

[18] = tested on: Matricaria inodora (MATIN); assay: Herbicidal pre-emergence action, 1280 g/ha (Table A6); conditions: visual grading after ca. 3 weeks vs untreated controls
Description: as §1

[19] = tested on: Matricaria inodora (MATIN); assay: Herbicidal post-emergence action, 320 g/ha, MATIN; conditions: visual grading after ca. 3 weeks
Description: as §2, with “plants).” for “plants). Tables B1 to B11 below, show the effects of selected compounds of the general formula (I) according to Table 1 on various harmful plants using an application rate corresponding to 1280 g/ha obtained by the experimental procedure mentioned above.”
as §4

[20] = tested on: Lolium rigidum (LOLRI); assay: Herbicidal pre-emergence action, 320 g/ha (Table C2); conditions: visual grading after ca. 3 weeks vs untreated controls
Description: as §1, with “Tables C1” for “Tables A1”, “to C6” for “to A11”, “plants using” for “plants and”, “to 320” for “to 1280”

| Structure (SMILES) | herbicidal effect LOLRI [1] [%] | herbicidal effect STEME [2] [%] | herbicidal effect ABUTH [3] [%] | herbicidal effect KCHSC [4] [%] | herbicidal effect MATIN [5] [%] | herbicidal effect STEME [6] [%] | herbicidal effect VERPE [7] [%] | herbicidal effect AMARE [8] [%] | herbicidal effect ABUTH [9] [%] | herbicidal effect KCHSC [10] [%] | herbicidal effect AMARE [11] [%] | herbicidal effect LOLRI [12] [%] | herbicidal effect ABUTH [13] [%] | herbicidal effect AMARE [14] [%] | herbicidal effect STEME [15] [%] | herbicidal effect STEME [16] [%] | herbicidal effect KCHSC [17] [%] | herbicidal effect MATIN [18] [%] | herbicidal effect MATIN [19] [%] | herbicidal effect LOLRI [20] [%] |
| --- | --- | --- | --- | --- | --- | --- | --- | --- | --- | --- | --- | --- | --- | --- | --- | --- | --- | --- | --- | --- |
| Cc1nn(C)c(=O)c(Oc2ccc(Cl)cc2Cl)c1O [Example I-019, 4-(2,4-dichlorophenoxy)-5-hydroxy-2,6-dimethyl-pyridazin-3-one] | 90 | 100 | 90 | 90 | 90 | 90 | 90 | 90 | 90 | 90 | 90 | – | – | – | – | – | – | – | – | – |
| CCOC(=O)Oc1c(C)nn(C)c(=O)c1Oc1ccccc1OC(F)F [Example I-074] | 90 | 90 | 100 | 90 | 90 | 100 | 90 | 100 | – | 90 | – | 90 | – | – | – | – | – | – | – | – |
| CCOC(=O)Oc1c(C)nn(C)c(=O)c1Oc1cc(Cl)cc(Cl)c1Cl [Example I-097] | 100 | 100 | – | – | – | 90 | – | 90 | – | – | – | – | 100 | 100 | 90 | 90 | – | – | – | – |
| Cc1nn(C)c(=O)c(Oc2ccc(Cl)cc2Cl)c1OC(=O)C(C)(C)C [Example I-049] | – | 100 | 90 | 90 | 90 | – | 90 | 100 | – | 90 | – | – | – | – | – | – | 90 | – | – | – |
| Cc1nn(C)c(=O)c(Oc2ccc(Cl)cc2C2CC2)c1O [Example I-035] | – | – | 90 | 90 | 90 | 90 | 90 | 90 | 90 | – | 90 | – | – | 90 | – | – | 100 | – | – | – |
| CCOC(=O)Oc1c(C)nn(C)c(=O)c1Oc1cc(F)cc(F)c1Br [Example I-098] | – | 100 | 90 | 90 | 90 | 90 | 90 | 100 | – | 90 | – | – | – | 100 | – | 90 | – | 100 | – | – |
| Cc1nn(C)c(=O)c(Oc2cc(F)c(F)cc2Br)c1OC(=O)C(C)C [Example I-094] | – | – | 90 | 90 | 90 | – | 90 | 100 | – | – | – | – | – | 100 | – | – | – | 100 | 90 | – |
| Cc1nn(C)c(=O)c(Oc2ccccc2Br)c1O [Example I-011] | 90 | 100 | – | 90 | – | – | – | 90 | – | – | – | – | – | 100 | 90 | – | 100 | 90 | – | – |
| Cc1nn(C)c(=O)c(Oc2cc(Cl)cc(Cl)c2Cl)c1O [Example I-096] | 90 | 100 | – | – | – | 100 | – | 90 | – | – | – | – | – | 90 | 100 | 90 | – | 100 | – | 90 |
